Reference: patent publication US10774080B2, “Pyrimidine compound as JAK kinase inhibitor” (THERAVANCE BIOPHARMA R&D IP, LLC, priority 2017, dated 2020)

Experiments:
Format in all cases: in vitro ADME
[1] = Assay 8: human skin permeability assay (MedFlux-HT flow-through diffusion cell); settings: 0.5% Ointment
Procedure: Assay 8: Human Skin Permeability Assay The objective of this experiment was to assess the percutaneous absorption of test compounds through human skin following topical application. The model uses excised human skin mounted in specially designed diffusion chambers (static or flow-through) that allow the skin to be maintained at a temperature and humidity that match real use conditions. The formulation was applied to the surface of the skin and the penetration of the drug is measured by monitoring its rate of appearance in the receptor solution flowing underneath the skin samples. This in vitro system allows carefully control of many of the potential variables involved in topical application, such as dosing volumes, humidity, temperature, drug stability, and skin thickness. […] This system was developed to specifically minimize the dosing area during in vitro experiments, thus allowing more dosing replications within the limited surface area of ex vivo human skin. The diffusion cells were placed in cell warming supports and heated using a circulating water bath in order to maintain the skin surface temperature at approx. 32° C. The cells were connected to multi-channel peristaltic pumps and maintained at a flow-rate of approximately 10 μL/min (600 μL/hr) for a continuous flow of receiver fluid directly under the skin. Following continuous sampling over 24 h, samples were assayed for test compound levels by LC-MS/MS. The test compound was detected in receiver fluid from […] following application of test ointment formulation (n=5). The ointment used is disclosed in Assay 7. The receiver fluid was PBS with 0.1% Brij.

[2] = test system: Caco-2 cell monolayers; experiment: Assay 16: Caco-2 permeation assay; settings: 5 μM, A to B, with Verapamil (25 μM), 120 minutes
Procedure: (§1) Assay 16: Caco-2 Permeation Assay The Caco-2 permeation assay was used as an indication of skin permeability. The assay measures the rate at which test compounds in solution permeate a cell monolayer (designed to mimic the tight junction of human small intestinal monolayers). CacoReady 24-well transwell plates were obtained from […], Calif.). The compounds were evaluated at a concentration of 5 μM from 10 mM DMSO stock solutions in duplicate (n=2). The passive permeability of the compounds tested was evaluated using Caco-2 cell monolayers along with Verapamil (25 μM) to inhibit P-gp transport proteins in the apical to basolateral (A-B) direction. The experiment was conducted in a 37° C., 5% CO2 incubator. Caco-2 culture media consisted of standard filtered DMEM, FCS 10%, L-Glutamine 1% and PenStrep 1%. Basal assay plate was prepared by adding 750 μL of transport buffer to A-B wells. A CacoReadyTM plate was prepared by removing the Caco-2 media from the apical wells and replacing with fresh transport media (200 μL repeated for a total of 3 washes). Blank media (200 μL) was then replaced with diluted compound for A-B wells. To begin the incubation, the basal plate was removed from the incubator and the apical section was added on top of it. […] The permeation coefficient (Kp, mean A to B+Verapamil […]) in cm/sec was calculated as dQ (flux)/(dt×Area×concentration).

[3] = Assay 16: Caco-2 permeation assay; settings: human, Caco-2, with Verapamil 25 μM (P-gp); as illustrated in Table 13; read-out: permeability class (Caco-2)
Procedure: as §1

CCS(=O)(=O)N1[C@@H]2CCC[C@H]1C[C@H](N(C)c1nc(CO)c(F)c(Nc3cc(C)[nH]n3)n1)C2 [Compound (I), (2-(((1R,3s,5S)-9-(ethylsulfonyl)-9-azabicyclo[3.3.1]nonan-3-yl)(methyl)amino)-5-fluoro-6-((5-methyl-1H-pyrazol-3-yl)amino)pyrimidin-4-yl)methanol]
permeability in human skin assay (in words) [1]: good permeability | MedFlux Permeability, flux permeating through 1 cm2 of human skin (Mean) ([1]; n=5, receiver fluid PBS with 0.1% Brij): 39.1 ng/cm2/sec | permeability in human skin assay (in words) ([1]; listed as compound (I)): adequate permeability | Cacoverap Kp [2]: 42.3 ×10⁻⁶ cm/s | Papp A→B at 120 min, 5 μM [3]: > 20 ×10⁻⁶ cm/s
